Measurements published in patent publication US20030147850A1 (priority 2002, published 2003).

Tested on: vesicular stomatitis virus (VSV)
Assay type: cell-based

Disodium succinate hexahydrate
CPE inhibition, % of IFN control: 0%
